Reference: ChEMBL document CHEMBL5126669, “Discovery of 5,7-Dihydro-6H-pyrrolo[2,3-d]pyrimidin-6-ones as Highly Selective CDK2 Inhibitors” (ACS Med Chem Lett, 2022)

Legend:
[1] = biological target: Cyclin-dependent kinase 2/cyclin E1 (Homo sapiens, UniProt P24941); experiment: Inhibition of recombinant human N-terminal GST-tagged full-length CDK2/Flag-tagged cyclinE1 expressed in baculovirus expression system using eIF4E-binding protein-1 peptide as substrate incubated for 1 hr in presence of ATP by HTRF assay
[2] = Inhibition of CDK1/cyclin B (unknown origin) in presence of ATP; design: species or system Homo sapiens
[3] = organism: Homo sapiens; experiment: Selectivity ratio of IC50 for inhibition of CDK1 in human OVCAR3 cells to IC50 for inhibition of CDK2 in human COV318 cells; assay type: cell-based
[4] = organism: Homo sapiens; experiment: Selectivity ratio of IC50 for inhibition of CDK1/cyclin B (unknown origin) to IC50 for inhibition recombinant human N-terminal GST-tagged full-length CDK2/Flag-tagged cyclinE1 expressed in baculovirus expression system
[5] = organism: Homo sapiens; experiment: Selectivity ratio of IC50 for inhibition of CDK4/cyclin D1 (unknown origin) to IC50 for inhibition recombinant human N-terminal GST-tagged full-length CDK2/Flag-tagged cyclinE1 expressed in baculovirus expression system
[6] = organism: Homo sapiens; experiment: Selectivity ratio of IC50 for inhibition of CDK6/cyclin D1 (unknown origin) to IC50 for inhibition recombinant human N-terminal GST-tagged full-length CDK2/Flag-tagged cyclinE1 expressed in baculovirus expression system
[7] = biological target: Cyclin-dependent kinase 2 (Homo sapiens, UniProt P24941); experiment: Inhibition of CDK2 in human COV318 cells incubated for overnight in presence of human whole blood by HTRF assay; assay type: cell-based
[8] = Intrinsic clearance in human liver microsomes at 1 uM measured upto 30 mins by LC/MS analysis; assay type: ADME, Microsome; conditions: read-out: CLH (converted)
[9] = organism: Homo sapiens; experiment: Selectivity ratio of IC50 for inhibition of CDK4 (unknown origin) to IC50 for inhibition recombinant human N-terminal GST-tagged full-length CDK2/Flag-tagged cyclinE1 expressed in baculovirus expression system; conditions: tested as the 2H-labelled form
[10] = organism: Homo sapiens; experiment: Selectivity ratio of IC50 for inhibition of CDK1 (unknown origin) to IC50 for inhibition recombinant human N-terminal GST-tagged full-length CDK2/Flag-tagged cyclinE1 expressed in baculovirus expression system; conditions: tested as the 2H-labelled form
[11] = organism: Homo sapiens; experiment: Selectivity ratio of IC50 for inhibition of CDK7 (unknown origin) to IC50 for inhibition recombinant human N-terminal GST-tagged full-length CDK2/Flag-tagged cyclinE1 expressed in baculovirus expression system; conditions: tested as the 2H-labelled form
[12] = organism: Homo sapiens; experiment: Selectivity ratio of IC50 for inhibition of CDK9 (unknown origin) to IC50 for inhibition recombinant human N-terminal GST-tagged full-length CDK2/Flag-tagged cyclinE1 expressed in baculovirus expression system; conditions: tested as the 2H-labelled form
[13] = organism: Homo sapiens; experiment: Selectivity ratio of IC50 for inhibition of CDK6 (unknown origin) to IC50 for inhibition recombinant human N-terminal GST-tagged full-length CDK2/Flag-tagged cyclinE1 expressed in baculovirus expression system; conditions: tested as the 2H-labelled form

Compound | IC50 [1] | IC50 [2] | Ratio IC50 [4] | Ratio IC50 [5] | Ratio IC50 [6] | IC50 [7] | predicted hepatic clearance at 1 µM [8] | other results
CC[C@@H](C(F)F)N1C(=O)C2(CC2)c2cnc(NC3CCN(S(C)(=O)=O)CC3)nc21 | 23 nM | 1.69 µM | – | – | – | – | – | Ratio IC50 [3]: 74
CC1(C)C(=O)N(C2CCCC2)c2nc(NC3CCN(S(C)(=O)=O)CC3)ncc21 | 87 nM | > 5 µM | – | – | – | – | – | –
CS(=O)(=O)N1CCC(Nc2ncc3c(n2)N(C2CCOCC2)C(=O)C32CC2)CC1 | 2200 nM | – | – | – | – | – | – | –
Cn1cc(S(=O)(=O)N2CCC(Nc3ncc4c(n3)N(C3CCCC3)C(=O)C43CC3)CC2)cn1 | 17 nM | 1.28 µM | – | – | – | – | – | Ratio IC50 [3]: 75
CCC1(C)C(=O)N(C2CCCC2)c2nc(NC3CCN(S(C)(=O)=O)CC3)ncc21 (centres undefined) | 557 nM | > 5 µM | – | – | – | – | – | –
CS(=O)(=O)N1CCC(Nc2ncc3c(n2)N(C2CCCCC2)C(=O)C32CC2)CC1 | 82 nM | > 5 µM | – | – | – | – | – | –
CS(=O)(=O)N1CCC(Nc2ncc3c(n2)N(C2CCCC2)C(=O)C32CCC2)CC1 | 236 nM | > 5 µM | – | – | – | – | – | –

Stronger by IC50 [1], values ahead:

IC50 [1] | IC50 [2] | Ratio IC50 [4] | Ratio IC50 [5] | Ratio IC50 [6] | IC50 [7] | predicted hepatic clearance at 1 µM [8] | Compound | other results
1.6 nM | – | 480 | 29 | 24 | 460 nM | 11.7 mL/min/kg | CNS(=O)(=O)c1ccc(Nc2ncc3c(n2)N([C@@H](C)C2CC2)C(=O)C32CC2)cc1 | –
1.8 nM | – | 250 | 29 | 28 | 770 nM | > 18.3 mL/min/kg | C[C@@H]1CCC[C@H]1N1C(=O)C2(CC2)c2cnc(Nc3ccc(S(=O)(=O)NCCO)cc3)nc21 (relative stereo) | –
0.33 nM | – | 890 | 33 | 48 | 230 nM | 18.3 mL/min/kg | CNS(=O)(=O)c1ccc(Nc2ncc3c(n2)N([C@H]2CCC[C@@H]2C)C(=O)C32CC2)cc1 (relative stereo) | –
0.25 nM | – | 1200 | 1000 | 230 | 670 nM | 13.3 mL/min/kg | CNS(=O)(=O)c1ccc(Nc2ncc3c(n2)N([C@@H]2CCC[C@@H](O)C2)C(=O)C32CC2)cc1 | Ratio IC50 [9]: 770; Ratio IC50 [10]: 1200; Ratio IC50 [11]: 17000; Ratio IC50 [12]: 8200; Ratio IC50 [13]: 230
